The assay has as its target T1, human mincle CRD (Homo sapiens, UniProt Q9ULY5).
T1 construct: gene CLEC4E; C-terminal biotinylation tag kept; immobilised on streptavidin plates
T1 sequence (Q9ULY5 74-219): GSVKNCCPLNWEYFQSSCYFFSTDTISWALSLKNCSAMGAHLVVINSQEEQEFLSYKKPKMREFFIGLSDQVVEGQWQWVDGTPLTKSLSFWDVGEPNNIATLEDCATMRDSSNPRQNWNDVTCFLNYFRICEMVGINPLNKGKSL
Briefly: competition with […]-Man31-BSA on immobilised CRD. Format: binding.
By Ki is commonly meant the equilibrium dissociation constant of an inhibitor or competing ligand from its target. A high value points to a looser hold on the target. In the case of `CCCCCC(=O)OC[C@H]1O[C@H](O[C@H]2O[C@H](COC(=O)CCCCC)[C@@H](O)[C@H](O)[C@H]2O)[C@H](O)[C@@H](O)[C@@H]1O` [dihexanoate derivative], the Ki was found to be 12.5 µM.

`CCCCCC(=O)OC[C@H]1O[C@H](O[C@H]2O[C@H](CO)[C@@H](O)[C@H](O)[C@H]2O)[C@H](O)[C@@H](O)[C@@H]1O` [monohexanoate derivative] yielded a Ki of 184 ± 6 µM.

`CCCCCCCC(=O)OC[C@H]1O[C@H](O[C@H]2O[C@H](CO)[C@@H](O)[C@H](O)[C@H]2O)[C@H](O)[C@@H](O)[C@@H]1O` [monooctanoyl trehalose]: the Ki came out at 45 ± 4 µM.

The values are drawn from PMC4211601, “Defining the conformation of human mincle that interacts with mycobacterial trehalose dimycolate” (Glycobiology, 2014).
